From paper PMC12040169 (PLOS Biology, 2025) come the findings set out here.

One may read the viability as a read-out of living cells in per cent, often relative to untreated cells.

The nature of the data set: in vitro. The note with it: human, hela cells, % viability.
On to `CCCCC(C(=O)O)N1C(=O)C2CC=C(Cl)CC2C1=O` (stereo not drawn) [CBK286536], for which the viability at 28.5 h, 10 µM came to 91.4%.
Consider `Cn1c(=O)n(C)c2cc(CNCc3ccc(C(=O)O)cc3)ccc21` [CBK286538], for which the viability at 28.5 h, 10 µM worked out at 95.8%.
Next, `O=C(O)CC1C(=O)NCCN1CC(c1ccccc1)c1ccccc1` (stereo not drawn) [CBK286539]: 77.5%; `O=C(O)CCSc1nnc(-c2cccc(Br)c2)o1` [CBK286540]: 82.8%; `Nc1cccc(S(=O)(=O)N2CCC(C(=O)O)CC2)c1` [CBK286541]: 88.2%.
For `O=C(O)C1Nc2ccc(Oc3ccccc3)cc2C2C=CCC12` (stereo not drawn) [CBK286542], the viability at 28.5 h, 10 µM came to 80.8%.
Take `O=C(O)c1cn(CCN2C(=O)c3ccccc3C2=O)nn1` [CBK286543]: the viability at 28.5 h, 10 µM came to 91%.
Take `CC(C)C(=O)Nc1ccc2c(c1)C(=O)N(CCC(=O)O)C2=O` [CBK286544]: the viability at 28.5 h, 10 µM is 86.1%.
`Cc1n[nH]c2c1C(c1ccc(C(=O)O)cc1)C1=C(COC1=O)N2` (stereo not drawn) [CBK286546]: the viability at 28.5 h, 10 µM amounted to 94.7%.
`O=C(O)/C=C/c1ccc(CNS(=O)(=O)c2ccccc2)o1` [CBK286549]: the viability at 28.5 h, 10 µM stood at 86%.
In the case of `O=C(O)CNC(=O)CNC(=O)Cn1c(-c2ccccc2)cc2ccccc21` [CBK286550] it was 89.1%; in that of `O=C(O)CN1C(=O)C(=O)/C(=C(O)\C=C\c2ccccc2)C1c1ccccc1` (stereo not drawn) [CBK286551], 86.8%; in that of `CSCCC(NC(=O)C1CCC(C)CC1)C(=O)O` (stereo not drawn) [CBK286552], 87.5%.
As to `O=C(O)CCNC(=O)c1ccc(C#CC2(O)CCCCC2)cc1` [CBK286554], the viability at 28.5 h, 10 µM worked out at 93.2%.
For `Cn1cc(C2c3ccccc3C(=O)N2CC(=O)O)c2ccccc21` (stereo not drawn) [CBK286555], the viability at 28.5 h, 10 µM is 90.2%.
With `O=C(O)c1ccccc1NC1CC(=O)N(C2CCCCC2)C1` (stereo not drawn) [CBK286556], the viability at 28.5 h, 10 µM turned out to be 91.3%.
For the molecule `Cn1nc(CC(=O)Nc2ccccc2C(=O)O)c2ccccc2c1=O` [CBK286558], the viability at 28.5 h, 10 µM was found to be 88.9%.
As to `Cc1nn(-c2ccc(F)cc2)c2c1C(c1ccc(C(=O)O)cc1)CC(=O)N2` (stereo not drawn) [CBK286561], the viability at 28.5 h, 10 µM is 101%.
Turning to `O=C(O)/C=C\C(=O)N(C1CCCCC1)C1CCCCC1` [CBK286562], the viability at 28.5 h, 10 µM is 92%.
As for `Cc1ccc(NC(=O)/C=C/C(=O)O)c(NC(=O)c2ccccc2)c1` [CBK286563], the viability at 28.5 h, 10 µM was determined as 97.3%.
With `CC1=C(C)CC(C(=O)Nc2ccc(C(=O)NCc3cccnc3)cc2)C(C(=O)O)C1` (stereo not drawn) [CBK286567], the viability at 28.5 h, 10 µM turned out to be 78.8%.
Turning to `Cc1ccc(Oc2ccc(C(=O)NCC(=O)O)cc2)cc1C` [CBK286570], the viability at 28.5 h, 10 µM came out at 84.5%.
On to `Cc1cc2oc(=O)cc(C)c2cc1NC(=O)c1ccccc1C(=O)O` [CBK286572], for which the viability at 28.5 h, 10 µM is 92.1%.
For the molecule `NC(=O)C1(N2CCCCC2)CCN(C(=O)CCCC(=O)O)CC1` [CBK286575], the viability at 28.5 h, 10 µM came out at 84.2%.
For the molecule `CC(C(=O)O)N1C(=O)c2ccccc2C1c1c[nH]c2ccccc12` (stereo not drawn) [CBK286576], the viability at 28.5 h, 10 µM turned out to be 106%.
Turning to `CC1CN(C(=O)c2ccccc2-c2ccccc2C(=O)O)CC(C)O1` (stereo not drawn) [CBK286577], the viability at 28.5 h, 10 µM came to 87.7%.
As to `N#Cc1ccc(Oc2ccc(C(=O)NCC(=O)O)cc2)cc1` [CBK286579], the viability at 28.5 h, 10 µM turned out to be 90.1%.
As to `O=C(O)CNC(=O)CCS(=O)(=O)c1ccc(F)cc1` [CBK286580], the viability at 28.5 h, 10 µM is 86.1%.
In the case of `CC(C)(CN1C(=O)c2ccccc2C1=O)C(O)C(=O)O` (stereo not drawn) [CBK286582], the viability at 28.5 h, 10 µM was found to be 82.3%.
Take `Cc1ccc(S(=O)(=O)N2c3ccc(C(=O)O)cc3CC2C)cc1` (stereo not drawn) [CBK286584]: the viability at 28.5 h, 10 µM came out at 82.6%.
Take `COc1ccc(NC(=O)CCC(=O)N2CCC(C(=O)O)CC2)cc1` [CBK286588]: the viability at 28.5 h, 10 µM is 100%.
As for `CC(C)C[C@H](NC(=O)N1CC(=O)Nc2ccccc21)C(=O)O` [CBK286589], the viability at 28.5 h, 10 µM was determined as 94.8%.
In the case of `Cc1c(C(=O)O)sc2c1c(=O)n(Cc1ccccc1)c(=O)n2CCN(C)C` [CBK286590] it was 95.3%; in that of `O=C(O)C1Cc2ccccc2C(=O)N1CCc1ccccc1` (stereo not drawn) [CBK286592], 87.4%; in that of `O=C(O)C1CCCCC1C(=O)N1CCc2ccccc2C1` (stereo not drawn) [CBK286594], 85%.
As for `O=C(O)c1cc(S(=O)(=O)N2CCCCC2)ccc1O` [CBK286595], the viability at 28.5 h, 10 µM amounted to 89.6%.
For `CCCCN(Cc1ccccc1)C(=O)[C@H]1CCCC[C@H]1C(=O)O` [CBK286596], the viability at 28.5 h, 10 µM came to 85.3%.
`CC1(C)CC(=O)C2=C(C1)Nc1ccccc1N(CC(=O)O)C2c1cccs1` (stereo not drawn) [CBK286597]: the viability at 28.5 h, 10 µM was determined as 83.6%.
For the molecule `O=C(O)CC(CNC(=O)Cc1c[nH]c2ccccc12)c1ccc(Cl)cc1` (stereo not drawn) [CBK286598], the viability at 28.5 h, 10 µM is 91.7%.
Regarding `COCc1cc(C)nc2c1C(=O)NC(c1ccccc1C(=O)O)N2Cc1ccccc1` (stereo not drawn) [CBK286599], the viability at 28.5 h, 10 µM is 92.3%.
With `CC(=O)Nc1ccc(CC(C(=O)O)c2ccccc2)cc1` (stereo not drawn) [CBK286600], the viability at 28.5 h, 10 µM came out at 98.8%.
Turning to `O=C(O)c1ccccc1-c1ccccc1C(=O)Nc1ccc(O)cc1` [CBK286602], the viability at 28.5 h, 10 µM worked out at 85.1%.
`O=C(O)C1CC=CCC1C(=O)c1c[nH]c2ccccc12` (stereo not drawn) [CBK286603]: the viability at 28.5 h, 10 µM came to 90.7%.
For `CC(C)[C@H](NC(=O)Cc1n[nH]c(=O)c2ccccc12)C(=O)O` [CBK286607], the viability at 28.5 h, 10 µM amounted to 95.2%.
With `O=C(O)C[C@]1(C(=O)Nc2ccc(F)cc2)CC(/C=C/c2ccccc2)=NO1` [CBK286608], the viability at 28.5 h, 10 µM is 87.3%.
Regarding `CC(C)(CO)C(O)C(=O)NC1CCCC(C(=O)O)C1` (stereo not drawn) [CBK286609], the viability at 28.5 h, 10 µM is 96%.
Take `O=C(O)CCC(=O)Nc1ccc2c(c1)Cc1ccccc1-2` [CBK286611]: the viability at 28.5 h, 10 µM is 94.9%.
Next, `O=C(O)c1ccc(NC(=O)c2cc(-n3cnnc3)ccc2Cl)cc1` [CBK286613]: 111%; `Cc1nc(=O)c(-c2ccccc2)c(C)n1-c1ccc(OCC(=O)O)cc1` [CBK286615]: 106%.
Consider `O=C(O)c1ccc(OCC(O)Cn2nnc3ccccc32)cc1` (stereo not drawn) [CBK286616], for which the viability at 28.5 h, 10 µM is 103%.
As to `CC1CN(C(=O)/C=C/C(=O)O)c2ccccc2NC1=O` (stereo not drawn) [CBK286618], the viability at 28.5 h, 10 µM was determined as 108%.
For the molecule `CC(C)C[C@H](NC(=O)NCCN1CCOCC1)C(=O)O` [CBK286619], the viability at 28.5 h, 10 µM came to 99.4%.
For `O=C(CC(C(=O)O)c1c[nH]c2ccccc12)c1ccc(Cl)cc1` (stereo not drawn) [CBK286620], the viability at 28.5 h, 10 µM came out at 86.7%.
With `O=C(O)c1nccnc1C(=O)N1CCC(O)(c2ccc(Cl)cc2)CC1` [CBK286621], the viability at 28.5 h, 10 µM is 87.6%.
For `CC(=O)Nc1cc(NC(C)=O)c(C)c(C(=O)O)c1` [CBK286623], the viability at 28.5 h, 10 µM stood at 88.6%.
Take `O=C(O)C(c1c[nH]c2ccccc12)N1CCN(Cc2ccncc2)CC1` (stereo not drawn) [CBK286624]: the viability at 28.5 h, 10 µM worked out at 76.2%.
Next, `O=C(O)C1Cc2ccccc2CN1C(=O)c1ccccc1` (stereo not drawn) [CBK286628]: 102%; `O=C(O)c1ccc2c(c1)c(C(C(=O)O)N1CCCC1)cn2Cc1ccccc1` (stereo not drawn) [CBK286633]: 90.1%; `COc1ccc(OC)c2c1cc(C(=O)NC[C@H]1CC[C@H](C(=O)O)CC1)n2C` [CBK286636]: 86.1%.
Next, `COc1ccc2c(c1)c(C(C(=O)O)N1CCN(c3ccccn3)CC1)cn2CC(=O)O` (stereo not drawn) [CBK286637]: 98%.
In the case of `O=C(O)CCNc1cc2ccccc2cc1C(=O)O` [CBK286640] it was 80.7%; in that of `COc1cccc(C2=NO[C@@](CC(=O)O)(C(=O)NCc3ccccc3)C2)c1OC` [CBK286641], 83.4%; in that of `CC(C)C(=O)Nc1ccc2[nH]cc(C(C(=O)O)N3CCN(c4ccccc4)CC3)c2c1` (stereo not drawn) [CBK286645], 85.7%.
Regarding `Nc1cc(S(=O)(=O)C(F)(F)F)ccc1C(=O)O` [CBK286646], the viability at 28.5 h, 10 µM amounted to 87%.
Next, `CCCCC(NC(=O)c1cc2ccccc2[nH]1)C(=O)O` (stereo not drawn) [CBK286647]: 85.9%; `O=C(CC(CN1CCN(c2ccccn2)CC1)C(=O)O)NCc1ccccc1` (stereo not drawn) [CBK286649]: 89%; `O=C(O)COc1ccc(/C=C/c2nc3n(n2)C=COc2ccccc2-3)cc1` [CBK286650]: 80.2%.
For the molecule `O=C(O)Cc1nnc(CNc2ccc(Cl)cc2)[nH]1` [CBK286651], the viability at 28.5 h, 10 µM came out at 81.7%.
With `CN1CCN(C(C(=O)O)c2c[nH]c3cc(OCc4ccccc4)ccc23)CC1` (stereo not drawn) [CBK286654], the viability at 28.5 h, 10 µM came to 84.6%.
For `CC(C)C[C@H](NC(=O)COc1ccc2nc3n(c(=O)c2c1)CCCCC3)C(=O)O` [CBK286656], the viability at 28.5 h, 10 µM turned out to be 88.3%.
Take `CCOc1ccc(C(=O)CCNCC(=O)O)cc1` [CBK286657]: the viability at 28.5 h, 10 µM came to 94.4%.
Regarding `O=C(O)/C=C/C(=O)N(Cc1ccccn1)Cc1ccco1` [CBK286660], the viability at 28.5 h, 10 µM was determined as 84.2%.
Turning to `Cc1nn(Cc2ccc(Cl)cc2)c(C)c1C(N)C(=O)O` (stereo not drawn) [CBK286661], the viability at 28.5 h, 10 µM was 89.7%.
In the case of `CC(=O)c1ccc(NC(=O)[C@@]2(CC(=O)O)CC(c3ccc(F)cc3)=NO2)cc1` [CBK286663] it was 85%; in that of `O=C(O)C(c1c[nH]c2ccccc12)N1CCc2ccccc2C1` (stereo not drawn) [CBK286664], 84.5%.
For the molecule `O=C(CCn1ccc2ccc(F)cc21)NC[C@H]1CC[C@H](C(=O)O)CC1` [CBK286666], the viability at 28.5 h, 10 µM came to 86.2%.
`C=C(C)CN1CCN(C(C(=O)O)c2c[nH]c3ccc(OCc4ccccc4)cc23)CC1` (stereo not drawn) [CBK286668]: the viability at 28.5 h, 10 µM was determined as 80.6%.
Regarding `CC(C)C(NC(=O)N1c2ccccc2NC(=O)C1C(C)C)C(=O)O` (stereo not drawn) [CBK286670], the viability at 28.5 h, 10 µM was 100%.
In the case of `O=C(COc1ccc(Br)cc1C(=O)O)Nc1ccc(F)cc1` [CBK286671], the viability at 28.5 h, 10 µM is 92%.
As to `O=C(O)CC1(O)C(=O)N(Cc2ccccc2)c2ccccc21` (stereo not drawn) [CBK286673], the viability at 28.5 h, 10 µM worked out at 104%.
In the case of `Cc1c(CC(=O)O)c(=O)oc2cc(OCc3ccc(F)cc3)ccc12` [CBK286674] it was 103%.
